Measured values published in PubChem BioAssay (NCI).
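Grown in 96-well plates, cells were treated for 48 hours with each compound at five concentrations. Insufficient inhibition: endpoint recorded as highest concentration tested. Here, GI50 denotes the concentration required for 50% inhibition of growth. Definition used: TGI = concentration required for complete inhibition of growth.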

Key:
Assay in all cases: NCI anticancer screen, dose series, 48 h
DLD-1 colon = tested on: DLD-1 colon
DMS 114 small cell lung = tested on: DMS 114 small cell lung
HOP-18 NSCLC = tested on: HOP-18 NSCLC
RXF-631 renal = tested on: RXF-631 renal
M19-MEL melanoma = tested on: M19-MEL melanoma
T-47D breast = tested on: T-47D breast
DMS 273 small cell lung = tested on: DMS 273 small cell lung
MDA-N = tested on: MDA-N
XF 498 CNS = tested on: XF 498 CNS

| SMILES | TGI (DMS 114 small cell lung) | TGI (M19-MEL melanoma) | TGI (T-47D breast) | TGI (DMS 273 small cell lung) | TGI (MDA-N) | GI50 (T-47D breast) | also measured |
| --- | --- | --- | --- | --- | --- | --- | --- |
| O=C(O)C1NCCc2c1[nH]c1ccccc21 (stereo not given) | > 100 µM | > 100 µM | > 10 µM | > 100 µM | > 10 µM | – | TGI (DLD-1 colon): > 100 µM; TGI (HOP-18 NSCLC): > 100 µM; TGI (RXF-631 renal): > 100 µM |
| COc1ccc(-c2nn(-c3cccc(NC(=O)Nc4ccc(Cl)c(C(F)(F)F)c4)c3)cc2-c2ccncc2)cc1Cl | – | – | > 100 µM | – | – | 2.22 µM | – |
| COC(=O)C(=O)C(C(=O)C(=O)Nc1ccc(Cl)cc1C)c1nc2ccc(C(=O)c3ccccc3)cc2[nH]c1=O (stereo not given) | > 100 µM | > 100 µM | – | > 100 µM | – | – | TGI (DLD-1 colon): > 100 µM; TGI (HOP-18 NSCLC): > 100 µM; TGI (RXF-631 renal): > 100 µM |
| O=C(Nc1nccs1)c1cc2c(cc1Cl)Sc1nccn1S2(=O)=O | – | – | 64.5 µM | – | 33.4 µM | 23.4 µM | GI50 (MDA-N): 17.9 µM |
| O=C1C(=O)N(C(=O)c2ccc(Cl)c(Cl)c2)c2ccc(Cl)cc21 | 66 µM | 39.9 µM | – | > 100 µM | – | – | TGI (DLD-1 colon): > 100 µM; TGI (HOP-18 NSCLC): > 100 µM |
| COc1ccc2c(c1)CCc1c(-c3noc4c3CCc3cc(OC)ccc3-4)noc1-2 | – | – | > 100 µM | – | > 100 µM | – | – |
| ClCc1ccc(-c2ccc(Cn3cnc4c(Cl)nc(Cl)nc43)cc2)cc1 | – | – | 4.64 µM | – | – | 1.9 µM | – |
| O=c1c2ccccc2nc(-c2ccc(Br)cc2)n1NC1OC(CO)C(O)C(O)C1O (stereo not given) | > 100 µM | > 100 µM | – | > 100 µM | – | – | TGI (HOP-18 NSCLC): > 100 µM; TGI (RXF-631 renal): > 100 µM |
| N#CC(=S)Nc1ccc(Cl)c(Cl)c1 | – | – | > 74.8 µM | – | 88.3 µM | – | – |
| CC(=O)NC(CCCCNC(=O)N(CCCl)N=O)C(=O)NCc1ccccc1 (stereo not given) | > 100 µM | > 100 µM | – | > 100 µM | – | – | TGI (XF 498 CNS): > 100 µM; TGI (DLD-1 colon): > 100 µM; TGI (HOP-18 NSCLC): > 100 µM; TGI (RXF-631 renal): > 100 µM |
| Cc1cc(C)c(O)c(Cc2cccc(Cc3cc(C)cc(C)c3O)c2O)c1 | – | – | > 100 µM | – | > 100 µM | – | – |
| COc1ccc(-c2cc(=O)c3c(OC)c(OC)c(OC)c(OC)c3o2)cc1OC | – | – | 70.6 µM | – | > 100 µM | – | – |
| CCOC(=O)/C(=C/c1ccc([N+](=O)[O-])cc1)C(=O)c1ccccc1 | – | – | 8.35 µM | – | – | 2.64 µM | – |
| NC(=O)N/N=C(\C(=O)C(=O)Nc1ccc(Cl)c(C(F)(F)F)c1)c1nc2ccc(C(=O)c3ccccc3)cc2[nH]c1=O | > 100 µM | > 100 µM | – | > 100 µM | – | – | TGI (XF 498 CNS): 64.1 µM; TGI (HOP-18 NSCLC): > 100 µM |
| COc1cc(/C=C2\CN(C)C/C(=C\c3cc(OC)c(OC)c(OC)c3)C2=O)cc(OC)c1OC | – | – | 5.02 µM | – | – | 1.12 µM | – |
| COC(=O)C1=CN=C(C(=O)OC)NN1 | > 100 µM | > 100 µM | – | – | – | – | TGI (XF 498 CNS): > 100 µM; TGI (DLD-1 colon): > 100 µM; TGI (HOP-18 NSCLC): > 100 µM; TGI (RXF-631 renal): > 100 µM |
| Cc1oc2c(C)c(O)c3c(c2c1C1(C)OCCO1)C(=O)C=C(Cl)C3=O | – | > 100 µM | – | > 100 µM | – | – | TGI (XF 498 CNS): > 100 µM; TGI (RXF-631 renal): > 100 µM |
| O=C1N=C(c2ccccc2)OC1C(=O)c1ccccc1 (stereo not given) | – | – | > 100 µM | – | > 100 µM | – | – |
| CN=C1Nc2ccc(Cl)cc2C(c2ccccc2)=NN1C | > 100 µM | > 100 µM | – | > 100 µM | – | – | TGI (XF 498 CNS): > 100 µM; TGI (DLD-1 colon): > 100 µM; TGI (RXF-631 renal): > 100 µM |
| Oc1ccc(CNCc2ccccc2)c2cccnc12 | – | – | – | – | > 100 µM | – | – |

| SMILES | TGI (DMS 114 small cell lung) | TGI (M19-MEL melanoma) | TGI (T-47D breast) | TGI (DMS 273 small cell lung) | TGI (MDA-N) | GI50 (T-47D breast) | also measured |
| --- | --- | --- | --- | --- | --- | --- | --- |
| C[C@@H](CO)OCOCc1ccccc1 | > 100 µM | > 100 µM | – | > 100 µM | – | – | TGI (XF 498 CNS): > 100 µM; TGI (DLD-1 colon): > 100 µM |
| COC(=O)C1(C(=O)OC)CC2c3c(c4ccccc4n3C)CC(C1=O)N2Cc1ccccc1 (stereo not given) | > 100 µM | > 100 µM | – | > 100 µM | – | – | TGI (XF 498 CNS): > 100 µM; TGI (DLD-1 colon): > 100 µM; TGI (RXF-631 renal): > 100 µM |
| CCOC(=O)c1ccc(N(CCOS(C)(=O)=O)CCOS(C)(=O)=O)cc1C | – | – | 62.1 µM | – | > 100 µM | 16.6 µM | GI50 (MDA-N): 57.8 µM |
| COc1cc(/C=C/C(=O)c2ccc(Nc3ncnc4ccccc34)cc2)cc(OC)c1 | – | – | 39.4 µM | – | – | 6.2 µM | – |
| C=C1C(=O)O[C@@H]2C(=O)[C@@H](C)[C@@H]3C=CC(=O)[C@@]3(C)[C@@H](OC(=O)/C(C)=C\C)[C@H]12 | – | – | 1.68 µM | – | 2.99 µM | – | – |
| O=C(Nc1n[nH]c2nc(-c3ccco3)ccc12)C1CC1 | – | – | > 25 µM | – | – | > 25 µM | – |
| N.N.N.N.N.N.[I-].[Os] | – | – | – | > 100 µM | – | – | GI50 (DLD-1 colon): > 100 µM; TGI (DLD-1 colon): > 100 µM; GI50 (HOP-18 NSCLC): > 100 µM; TGI (HOP-18 NSCLC): > 100 µM; GI50 (DMS 273 small cell lung): > 100 µM |
| COc1cc(C#N)cc(OC)c1OCCOCCOc1c(OC)cc(C#N)cc1OC | – | – | > 100 µM | – | – | 21.7 µM | – |
| C/C=C/C=N/N(C(=O)c1cc([N+](=O)[O-])cc([N+](=O)[O-])c1)C1=NC(c2ccccc2)C(c2ccccc2)=NN1 (stereo not given) | 48.4 µM | 46.2 µM | – | > 100 µM | – | – | TGI (XF 498 CNS): > 100 µM; TGI (DLD-1 colon): > 100 µM; TGI (HOP-18 NSCLC): > 100 µM; TGI (RXF-631 renal): > 100 µM |
| Cc1cc(O)c(C(c2cccnc2)c2c(O)cc(C)[nH]c2=O)c(=O)[nH]1 | – | – | > 100 µM | – | > 100 µM | – | – |
| Clc1cc(Cl)c(Cl)c(-c2nc(-c3cccnc3)cs2)c1 | – | – | 65.4 µM | – | – | 12.7 µM | – |
| O=C(O)c1ccc2c(c1Nc1ccccc1)C(=O)c1ccccc1C2=O | – | – | > 100 µM | – | – | 45.6 µM | – |
| O=C1/C(=C\C(Cl)=C/c2ccc([N+](=O)[O-])cc2)SC(=S)N1CCc1ccc(O)cc1 | – | – | 4.66 µM | – | – | 1.64 µM | – |
| Cc1c2c(nn1C(=O)c1nn(-c3ccc(Cl)cc3)cc1O)-c1ccccc1CC2 | – | – | > 100 µM | – | – | 0.0594 µM | – |
| Cc1cccc2c(N=Nc3ccc(S(N)(=O)=O)cc3)c(O)[nH]c12 | – | – | > 25 µM | – | – | > 25 µM | – |
| CC#CS(=O)(=O)c1ccccc1 | – | – | 6.22 µM | – | – | – | – |
| CCOC(=O)c1c(C)nc2ccc(Cl)cc2c1-c1ccccc1 | – | – | 47.8 µM | – | – | 12.9 µM | – |
| COc1cc2nc(Sc3c([N+](=O)[O-])ncn3C)[nH]c2cc1OC | 25.8 µM | > 100 µM | – | – | – | – | TGI (XF 498 CNS): 49.2 µM; TGI (DLD-1 colon): 46 µM; TGI (HOP-18 NSCLC): > 100 µM |
| Nc1ncnc2c1nc(-c1ccccc1)n2C1OC(CO)C(O)C1O (stereo not given) | – | – | > 100 µM | – | > 100 µM | – | – |
| CCCc1cc2cc(-n3nc(C)c4c3CC(C)(C)CC4=O)cc(NC3CCC(O)CC3)c2c(=O)[nH]1 (stereo not given) | – | – | > 100 µM | – | – | 0.0994 µM | – |
